These results are taken from patent publication US9371337B2, “β-lactamase inhibitors” (The Regents of the University of California, priority 2011, dated 2016).

For one series, the target named is CTX-M-9 β-lactamase (Escherichia coli, UniProt Q9L5C8). Put plainly: biochemical. It counts as biochemical. Particulars: for Ki: Table 8, read-out: Ki vs CTX-M-9; for potency estimated from few doses: read-out: IC50 (Estimated from single concentration measurement); for inhibition at 16 µM: read-out: Percentage inhibition with 16 μM inhibitor. The procedure:
Reactions were initiated by the addition of 0.3 nM enzyme and monitored at 405 nm.
(§1) To assess the selectivity of the new molecules we determined Ki values against three common serine proteases, Trypsin, Elastase and α-Chymotrypsin, as well as that of a class A β-lactamase, CTX-M-9 (Table 10) (Pouvreau L, et al. (1998), FEBS Lett 423:167-172; Del Mar E G, et al. (1980), Biochemistry 19:468-472; Rodriguez-Martinez J A, et al. (2009), Biotechnol Lett 31:883-887; Chen Y, et al. (2005), J Mol Biol 348:349-362).

The target in series [1] is T1, Trypsin (UniProt P00760).
T1 construct: IC50 (Estimated from single concentration measurement); Ki
T1 sequence (P00760 1-246): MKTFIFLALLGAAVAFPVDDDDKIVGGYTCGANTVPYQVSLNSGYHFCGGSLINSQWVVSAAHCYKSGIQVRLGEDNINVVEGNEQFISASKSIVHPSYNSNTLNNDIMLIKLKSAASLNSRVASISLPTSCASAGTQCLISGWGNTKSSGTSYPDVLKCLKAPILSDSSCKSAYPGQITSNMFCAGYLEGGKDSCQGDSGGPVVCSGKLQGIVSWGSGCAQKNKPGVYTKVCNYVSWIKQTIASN
Put plainly: Trypsin inhibition. It counts as biochemical. To be noted: Table 10, Trypsin.
Excerpt: as §1

Series [2] deals with T2, AmpC β-lactamase (Escherichia coli, UniProt P00811).
T2 construct: made in house
T2 sequence (P00811 20-377): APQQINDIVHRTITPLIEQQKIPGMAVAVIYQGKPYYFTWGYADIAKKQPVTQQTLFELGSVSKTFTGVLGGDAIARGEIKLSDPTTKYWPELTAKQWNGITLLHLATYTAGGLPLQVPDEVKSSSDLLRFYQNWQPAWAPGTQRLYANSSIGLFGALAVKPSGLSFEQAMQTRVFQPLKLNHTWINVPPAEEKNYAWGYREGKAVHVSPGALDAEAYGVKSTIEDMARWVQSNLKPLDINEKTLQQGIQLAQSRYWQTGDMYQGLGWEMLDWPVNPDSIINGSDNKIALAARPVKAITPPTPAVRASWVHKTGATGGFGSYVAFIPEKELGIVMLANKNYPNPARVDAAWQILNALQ
Format: biochemical. Particulars: for type of inhibition: Lineweaver-Burk analysis, competition with substrate CENTA; for time dependence of inhibition (incubation effect, off-rate): enzyme incubation and dilution experiments.

Series [3] deals with T1, Trypsin. Put plainly: Trypsin inhibition. It counts as biochemical. To be noted: for Percentage activity with 100 μM inhibitor: Table 4b; for Percentage inhibition with 100 μM inhibitor: Table 4c; for potency estimated from few doses: read-out: IC50 (Estimated from single concentration measurement), Table 4e.
In series [4] the target is T3, α-chymotrypsin (bovine pancreatic) (Bos taurus, UniProt P00766).
T3 construct: purchased Sigma-Aldrich
Put plainly: α-Chymotrypsin inhibition. Format: biochemical. To be noted: for activity at 100 µM: Table 4b, 100 μM inhibitor, read-out: Percentage activity with 100 μM inhibitor; for potency estimated from few doses: Table 4e, read-out: IC50 (Estimated from single concentration measurement); for Ki: Table 10, α-Chymotrypsin; for inhibition at 100 µM: read-out: Percentage inhibition with 100 μM inhibitor. How it is done: α-Chymotrypsin assays were performed in 50 mM Tris buffer pH 7.5 with 0.01% Triton-X. Inhibitor and 0.001 mg/mL enzyme were incubated at their final concentration for 10 min before the reaction was initiated by the addition of 200 μM N-succinyl-Ala-Ala-Pro-Phe p-nitroanilide and monitored at 410 nm.
as §1

The test system of series [5] is clinical strains resistant to third-generation cephalosporins. Put plainly: MIC distribution of third-generation cephalosporins alone or with compounds over clinical strains. To be noted: for clinical isolates for which MICs dropped into the susceptible range (MICs≦1 μg/mL): cephalosporins combined with the compound; for MIC 25% percentile / MIC 75% percentile: third-generation cephalosporins in combination with the compound. It counts as cell-based. The procedure:
The anti-resistance activity of inhibitors was investigated by the determination of the minimum inhibitory concentrations (MICs) of the β-lactam/inhibitor combination necessary to inhibit the growth of clinically-isolated bacteria resistant to third-generation cephalosporins via expression of class A or class C β-lactamases (Table 6).
Susceptibility testing was performed and interpreted following the guidelines of CLSI. (Clinical and Laboratory Standards Institute, Performance standards for antimicrobial susceptibility testing, 20th Informational Supplement, M100-S20 2010) The compounds were dissolved in 50% DMSO, and dilutions were performed using Muller-Hinton medium. An adequate final concentration was obtained to determine the minimum inhibitory concentrations (MICs). The concentration of DMSO was maintained below 5%. The inhibitors were tested for synergy with the third-generation β-lactams ceftazidime and cefotaxime against several clinical bacteria. The ratio of β-lactams to inhibitors was 1:4. Each value reported reflects the average of three independent experiments. […] The Friedman's test and the Wilcoxon signed rank test were used to compare MIC values. Statistical significance was established at p<0.05.

In series [6] the target is T2, AmpC β-lactamase. Put plainly: biochemical. Format: biochemical. How it is done: FIG. 18. Representative IC50 curves. […] IC50 curves were obtained by measuring rates (in duplicates) at different inhibitor concentrations (x-axis) and by determining the residual activity (y-axis, in percentage). IC50 values were determined by non-linear regression and Ki values calculated using GraphPad software assuming competitive inhibition.
Sulfonamidomethaneboronic acids were dissolved in 100% DMSO at a concentration of 100 mM; more diluted stocks were prepared as necessary. […] The enzyme was expressed and purified as described (Usher, K. C. et al., Biochemistry 1998, 37, 16082-16092) and CENTA was purchased from Tydock Pharma.
Kinetic measurements were run at room temperature in 50 mM sodium-cacodylate pH 6.5 in the presence of 0.01% Triton-X to prevent non-specific inhibition via compound aggregation. […] (Kettner, C. A. and Shenvi, A. B., J. Biol. Chem. 1984, 259, 15106-15114) Reactions were performed in 1 mL cuvettes with 60 μM CENTA and initiated by adding 1.2 nM enzyme. […] (Weston, G. S. et al., J. Med. Chem. 1998, 41, 4577-4586) The first 180 sec of each reaction were used to measure initial rates. IC50 values were obtained by fitting binding data to a sigmoidal dose-response equation using GraphPad Prism (GraphPad software, Inc). Ki values were determined by the use of Cheng-Prusoff equation. (Cheng, Y. and Prusoff, W. H., Biochem. Pharmacol. 1973, 22, 3099-3108)

The test system of series [7] is K. pneumoniae and E. cloacae strains in which AmpC expression is inducible. Put plainly: β-lactamase induction experiments (disk potentiation of ceftazidime). To be noted: 64 μg of compounds or 32 μg cefoxitin per disk, ceftazidime disk 30 μg. It counts as cell-based, Klebsiella pneumoniae; Enterobacter cloacae. An excerpt:
FIG. 9. Inhibition of bacterial growth and potentiation effect. A) Activity of compounds 4 (CP4) and 9 (CP9) in combination with ceftazidime (CAZ) and alone against a Klebsiella pneumoniae strain producing AmpC β-lactamase. Solvent (SOL):DMSO/Water 1:1. B) Potentiation of β-lactamase inhibition in an E. cloacae strain in which ampC gene expression is inducible by β-lactam antibiotics, such as cefoxitin (FOX). C) Potentiation of β-lactamase inhibition in a Klebsiella pneumoniae isolate producing the inducible class C enzyme DHA-1.
A traditional β-lactam resistance mechanism is the upregulation of β-lactamase-encoding gene transcription caused by β-lactams such as cefoxitin and the β-lactamase inhibitor clavulanate. To test the role of compounds on the induction of AmpC expression, we investigated their ability to potentiate the action of the β-lactam ceftazidime. We compared the potentiation effect of compounds with that of cefoxitin (FIGS. 9B and 9C). Agar plates were inoculated with K. pneumoniae and E. cloacae strains in which AmpC expression is inducible. A ceftazidime-containing disk and a disk containing the inhibitors (cefoxitin or compounds 4 and 9) were placed on each plate. As ceftazidime diffuses from disks into the agar, a clear zone is created around the ceftazidime-containing disk, indicating where bacteria are unable to grow. The shape of this halo in the vicinity of the inhibitor-containing disk indicated the effect of these compounds on the induction of AmpC. The inhibition halos normally surrounding ceftazidime were substantially diminished in the regions nearest to the cefoxitin disk.
For the β-lactamase induction experiments, plates of Mueller Hinton agar were inoculated with two clinical strains (E. cloacae and K. pneumoniae) in which production of AmpC-type enzyme is inducible by β-lactam antibiotics. Inhibitors were added to blank disks, and the final content of inhibitor per disk was 64 μg of compounds and 32 μg cefoxitin. Disks of ceftazidime contained 30 μg of antibiotic.

The next series relates to Elastase. Put plainly: Elastase inhibition. It counts as biochemical. To be noted: Table 4h, Elastase vs AmpC.
Excerpt: as §1

In series [8] the test system is Trypsin. As to the kind of experiment: Trypsin inhibition. It counts as biochemical. Particulars: Table 4h, Trypsin vs AmpC.
The mark [9] stands for this setting: Ki (from multi- or single concentration measurements), Table 4g.

Chain of CTX-M-9 β-lactamase (Q9L5C8 29-291): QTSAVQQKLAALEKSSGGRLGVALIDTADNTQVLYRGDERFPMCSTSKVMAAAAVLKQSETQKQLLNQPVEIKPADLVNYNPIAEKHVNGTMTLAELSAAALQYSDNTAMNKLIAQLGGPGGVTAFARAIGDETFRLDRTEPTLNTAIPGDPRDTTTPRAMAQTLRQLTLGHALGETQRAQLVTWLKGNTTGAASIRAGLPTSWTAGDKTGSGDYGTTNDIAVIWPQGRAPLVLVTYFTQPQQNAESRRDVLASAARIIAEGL

Regarding `O=S(=O)(NCB(O)O)c1ccc(-c2nn[nH]n2)c(Cl)c1` [CR191, [3-chloro-4-(3-tetrazol-5-yl)benzensulfonylamino]methaneboronic acid], the melting point (in general, the temperature of the solid-liquid transition) is 195 to 198 °C (dec.). Also, at CTX-M-9 β-lactamase, the IC50 – broadly, the concentration that inhibits the measured activity by half – was determined as 7 µM; the Ki (commonly the dissociation constant of the complex between target and ligand, obtained from inhibition or displacement) was 2.5 µM; the potency estimated from few doses was 7 µM; the inhibition (usually how much of the control response was suppressed) at 16 µM worked out at 70%. For the same compound, the Ki on Trypsin [1] was 350 µM. For the same compound, at AmpC β-lactamase [2], the type of inhibition entry is given as “competitive” and the “time dependence of inhibition (incubation effect, off-rate)” value is listed as “slow off-rate”. Moreover, at Trypsin [3], the “Percentage activity with 100 μM inhibitor” value is recorded as 95, the “Percentage inhibition with 100 μM inhibitor” value amounted to 5 and the potency estimated from few doses is 1900 µM. Further, in series [4], the activity at 100 µM came out at 85%, the potency estimated from few doses was 567 µM, the inhibitory constant (Ki) came to 141 µM and the inhibition at 100 µM was 15%. Also, in series [5], the “clinical isolates for which MICs dropped into the susceptible range (MICs≦1 μg/mL)” value stood at 25%, the “MIC 25% percentile” value stood at 1.0 µg/mL and the “MIC 75% percentile” value is 4.0 µg/mL. In addition, the IC50 on AmpC β-lactamase [6] was 0.0016 µM. Moreover, affinity at AmpC β-lactamase [6] (Ki) was put at a Ki of 0.003 µM. The compound also returned a Ki at AmpC β-lactamase [6] (setting [9]) of 0.003 µM. The compound also displayed a Ki on AmpC β-lactamase [6] (Ki Vs AmpC, Table 7) of 0.003 µM. At AmpC β-lactamase [6] (Ki vs AmpC, Table 8), this compound yielded a Ki of 0.003 µM. Affinity on AmpC β-lactamase [6] (Ki, Table 5) was put at a Ki of 0.003 µM. This compound also had a Ki on AmpC β-lactamase [6] (Ki, Table 10, AmpC) of 0.003 µM. Further, the Ligand efficiency on AmpC β-lactamase [6] (Table 5) stood at 0.57.

On to `CO[C@@]1(NC(=O)Cc2cccs2)C(=O)N2C(C(=O)O)=C(COC(N)=O)CS[C@@H]21` [cefoxitin, reference compound], for which the “effect on the ceftazidime inhibition halo (induction of AmpC)” value in series [7] is “antagonist picture”.

Take `O=S(=O)(NCB(O)O)c1ccc(-c2nn[nH]n2)cc1Cl` [CR190, [2-chloro-4-(3-tetrazol-5-yl)benzensulfonylamino]methaneboronic acid]: the melting point was 110 to 113 °C (dec.). Also, the “Selectivity vs AmpC (comparison of IC50 values)” value (shortened to “Selectivity vs AmpC”) in the series with Elastase is reported as 30784. Also, on CTX-M-9 β-lactamase, half-maximal inhibition (IC50) was put at 4 µM, the Ki is 1.4 µM, the potency estimated from few doses was 4 µM and the inhibition at 16 µM was determined as 81%. Moreover, the “Selectivity vs AmpC” value on CTX-M-9 β-lactamase (Table 4h, CTX-M-9 vs AmpC) is 2346. On Trypsin [1], this compound displayed a Ki of 350 µM. For the same compound, at AmpC β-lactamase [2], the type of inhibition result is listed as “competitive” and the “time dependence of inhibition (incubation effect, off-rate)” value was “slow off-rate”. Further, at Trypsin [3], the “Percentage activity with 100 μM inhibitor” value came to 95, the “Percentage inhibition with 100 μM inhibitor” value is listed as 5 and the potency estimated from few doses was 1900 µM. Further, the “Selectivity vs AmpC” value in the series with Trypsin [8] was 1187500. Further, in series [4], the activity at 100 µM is 85%, the potency estimated from few doses was 567 µM, affinity was put at a Ki of 141 µM and the inhibition at 100 µM amounted to 15%. Besides, the “Selectivity vs AmpC” value in [4] (Table 4h, Chymotrypsin vs AmpC) came to 354167. In [5], the “clinical isolates for which MICs dropped into the susceptible range (MICs≦1 μg/mL)” value was 50%, the “MIC 25% percentile” value amounted to 0.5 µg/mL and the “MIC 75% percentile” value turned out to be 2.0 µg/mL. The compound also returned an IC50 on AmpC β-lactamase [6] of 0.0016 µM. Moreover, the affinity at AmpC β-lactamase [6] (setting [9]), expressed as Ki, was 0.0002 µM. The compound further registered a Ki on AmpC β-lactamase [6] (Ki Vs AmpC, Table 7) of 0.0002 µM. The Ki on AmpC β-lactamase [6] (Ki vs AmpC, Table 8) stood at 0.0002 µM. The compound further registered a Ki on AmpC β-lactamase [6] (Ki, Table 5) of 0.0002 µM. This compound also had a Ki on AmpC β-lactamase [6] (Ki, Table 10, AmpC) of 0.0002 µM. At AmpC β-lactamase [6] (Ki, running text and FIG. 18, substrate CENTA 105 μM), this compound came in with a Ki of 0.0002 µM. In addition, the Ligand efficiency at AmpC β-lactamase [6] (Table 5) is on record as 0.65. Also, at AmpC β-lactamase [6] (ratio of Ki values), the “improved affinity compared to CR157” value stood at 6 fold.
